According to patent US20070197586A1, “8-Hydroxy-5-[(-Hydroxy-2-[[ (1R)-2-(4-Methoxyphenyl)-1-Methylethyl] Amino][Ethyl]-2(1H)-Quinolinone Monohydrochloride In Crystalline Form And The Process For Its Preparation” (Chiesi Farmaceutici S.p.A., priority 2004, published 2007):

Experiment: Crystalline degree by in-house DSC method (heat of fusion vs 100% crystalline reference standard)
Type: physicochemical
Details: samples as such and after grinding or micronization; DSC scan rate 130° C./min; maintained after grinding and micronization
Method: The crystalline degree of the compound has been determined according to a differential scanning calorimetry (DSC) method developed in-house based on the measurement of the heat of fusion.
Said method uses a scan rate of 130° C./min to evaluate the percentage of crystalline compound in a sample by determining the ratio between the ΔH (heat of fusion) of the sample with respect to the ΔH of a 100% crystalline reference standard, determined in the same range of temperature and in the same experimental conditions. The 100% crystalline reference standard was prepared by suspending the compound in ethanol, then filtering to eliminate the residual amorphous compound dissolved in ethanol, and drying.
The method was applied to samples of the compound of the Example as such, and after grinding or micronization.

COc1ccc(C[C@@H](C)NC[C@H](O)c2ccc(O)c3[nH]c(=O)ccc23)cc1.Cl [compound of the Example, 8-hydroxy-5-[(1R)-1-hydroxy-2-[[(1R)-2-(4-methoxyphenyl)-1-methylethyl]amino]ethyl]-2(1H)-quinolinone monohydrochloride]
cristallinity degree: higher than 90%
